Earlier results in patent CN101129366A, “一种尼莫地平药物组合物及其制备方法” (Beijing Zhonghaikang Medical Technology Development Co Ltd, priority 2007, dated 2008).

Settings: drug substance

solubility in acetone and chloroform (acetone, chloroform): 易溶
solubility in ethanol (ethanol): 溶解
solubility in diethyl ether (ether): 微溶
solubility in water (water): 不溶
Structure (SMILES): COCCOC(=O)C1=C(C)NC(C)=C(C(=O)OC(C)C)C1c1cccc([N+](=O)[O-])c1 (stereo not shown) [尼莫地平]
